The values that follow come from patent US9315520B2, “2-amino-6-methyl-4,4a,5,6-tetrahydropyrano[3,4-d][1,3]thiazin-8a(8H)-yl-1,3-thiazol-4-yl amides” (Pfizer Inc., priority 2014, dated 2016).

Structures can show the parent of a compound that is named as a salt.

Sequence of BACE1 (P56817 46-457): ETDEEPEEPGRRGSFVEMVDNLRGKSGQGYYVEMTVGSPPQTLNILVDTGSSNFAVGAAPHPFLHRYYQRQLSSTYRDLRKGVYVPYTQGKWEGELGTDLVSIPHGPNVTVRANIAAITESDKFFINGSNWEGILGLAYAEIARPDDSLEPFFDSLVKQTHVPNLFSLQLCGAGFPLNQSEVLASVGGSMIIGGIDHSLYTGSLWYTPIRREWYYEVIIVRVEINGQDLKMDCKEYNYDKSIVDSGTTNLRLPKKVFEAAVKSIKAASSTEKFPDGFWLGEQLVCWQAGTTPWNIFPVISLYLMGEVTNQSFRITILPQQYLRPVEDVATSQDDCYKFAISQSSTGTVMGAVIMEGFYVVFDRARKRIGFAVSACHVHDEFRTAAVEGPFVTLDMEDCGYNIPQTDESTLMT

This experiment deals with BACE1 (Homo sapiens (Human), UniProt P56817). In words: BACE1 Cell-Free Assay (fluorescence polarization). The class given is biochemical. To be noted: geometric mean of 2-4 determinations unless otherwise indicated (b: ≧5; c: single determination); read-out: BACE1 Cell-free Assay IC50. From the text:
This assay measures the inhibition of the beta-secretase enzyme as it cleaves a non-native peptide.
A synthetic APP substrate that can be cleaved by beta-secretase having N-terminal biotin and made fluorescent by the covalent attachment of Oregon Green at the Cys residue is used to assay beta-secretase activity in the presence or absence of the inhibitory compounds. […] The BACE1 enzyme is affinity purified material from conditioned media of CHO-K1 cells that have been transfected with a soluble BACE construct (BACE1deltaTM96His). […] Plates are covered and incubated for 3 hours at 37° C. […] The activity of the beta-secretase enzyme is detected by changes in the fluorescence polarization that occur when the substrate is cleaved by the enzyme.
For orientation: In fluorescence polarisation assays a small probe gives low polarisation when free and higher when bound to something large.
Regarding `C[C@@H](F)COc1cnc(C(=O)Nc2csc([C@]34CO[C@@H](C)C[C@H]3CSC(N)=N4)n2)cn1` [Example 56, N-{2-[(4aR,6S,8aR)-2-amino-6-methyl-4,4a,5,6-tetrahydropyrano[3,4-d][1,3]thiazin-8a(8H)-yl]-1,3-thiazol-4-yl}-5-{[(2R)-2-fluoropropyl]oxy}pyrazine-2-carboxamide], the IC50 (commonly the point on the concentration scale where inhibition reaches its midpoint) was determined as 360 nM.
The result for `C[C@H](F)COc1cnc(C(=O)Nc2csc([C@]34CO[C@@H](C)C[C@H]3CSC(N)=N4)n2)cn1` [Example 57, N-{2-[(4aR,6S,8aR)-2-amino-6-methyl-4,4a,5,6-tetrahydropyrano[3,4-d][1,3]thiazin-8a(8H)-yl]-1,3-thiazol-4-yl}-5-{[(2S)-2-fluoropropyl]oxy}pyrazine-2-carboxamide] reads 372 nM; that for `C[C@H]1C[C@H]2CSC(N)=N[C@@]2(c2nc(NC(=O)c3cnc(OCC(C)(F)F)cn3)cs2)CO1` [Example 58, N-{2-[(4aR,6S,8aR)-2-amino-6-methyl-4,4a,5,6-tetrahydropyrano[3,4-d][1,3]thiazin-8a(8H)-yl]-1,3-thiazol-4-yl}-5-(2,2-difluoropropoxy)pyrazine-2-carboxamide], 161 nM.
For `Cc1nc(C)c(C(=O)Nc2csc([C@]34CO[C@@H](C)C[C@H]3CSC(N)=N4)n2)o1` [Example 59, N-{2-[(4aR,6S,8aR)-2-amino-6-methyl-4,4a,5,6-tetrahydropyrano[3,4-d][1,3]thiazin-8a(8H)-yl]-1,3-thiazol-4-yl}-2,4-dimethyl-1,3-oxazole-5-carboxamide, trifluoroacetate salt], the IC50 was 740 nM.
Regarding `C[C@H]1C[C@H]2CSC(N)=N[C@@]2(c2nc(NC(=O)c3cn(C)nc3C(F)(F)F)cs2)CO1` [Example 60, N-{2-[(4aR,6S,8aR)-2-amino-6-methyl-4,4a,5,6-tetrahydropyrano[3,4-d][1,3]thiazin-8a(8H)-yl]-1,3-thiazol-4-yl}-1-methyl-3-(trifluoromethyl)-1H-pyrazole-4-carboxamide, trifluoroacetate salt], the IC50 came out at 3840 nM.
Turning to `CC(C)n1cnc(C(=O)Nc2csc([C@]34CO[C@@H](C)C[C@H]3CSC(N)=N4)n2)c1` [Example 61, N-{2-[(4aR,6S,8aR)-2-amino-6-methyl-4,4a,5,6-tetrahydropyrano[3,4-d][1,3]thiazin-8a(8H)-yl]-1,3-thiazol-4-yl}-1-(propan-2-yl)-1H-imidazole-4-carboxamide, trifluoroacetate salt], the IC50 was 1830 nM.
Consider `CC(C)Cc1cc(C(=O)Nc2csc([C@]34CO[C@@H](C)C[C@H]3CSC(N)=N4)n2)no1` [Example 62, N-{2-[(4aR,6S,8aR)-2-amino-6-methyl-4,4a,5,6-tetrahydropyrano[3,4-d][1,3]thiazin-8a(8H)-yl]-1,3-thiazol-4-yl}-5-(2-methylpropyl)-1,2-oxazole-3-carboxamide, trifluoroacetate salt], for which the IC50 was determined as 9690 nM.
Consider `C[C@H]1C[C@H]2CSC(N)=N[C@@]2(c2nc(NC(=O)c3cnn(C)c3)cs2)CO1` [Example 63, N-{2-[(4aR,6S,8aR)-2-amino-6-methyl-4,4a,5,6-tetrahydropyrano[3,4-d][1,3]thiazin-8a(8H)-yl]-1,3-thiazol-4-yl}-1-methyl-1H-pyrazole-4-carboxamide, trifluoroacetate salt], for which the IC50 is 3940 nM.
The value for `Cc1cc(C(=O)Nc2csc([C@]34CO[C@@H](C)C[C@H]3CSC(N)=N4)n2)no1` [Example 64, N-{2-[(4aR,6S,8aR)-2-amino-6-methyl-4,4a,5,6-tetrahydropyrano[3,4-d][1,3]thiazin-8a(8H)-yl]-1,3-thiazol-4-yl}-5-methyl-1,2-oxazole-3-carboxamide, trifluoroacetate salt] was 2620 nM.
